# Measurements as given in patent publication US9789101B2, “Methods and compositions for treating microbial infection using pyrroloquinone” (HELPERBY THERAPEUTICS LIMITED, priority 2010, dated 2017).
# Columns and labels:
# [1] = test system: log phase Staphylococcus aureus; experiment: Chequerboard analysis of HT00800059 and mupirocin against log phase Staphylococcus aureus; type: cell-based, Staphylococcus aureus (Oxford)
# Protocol: Staphylococcus aureus (Oxford); Gram positive; Reference strain. Log phase growth of […] sensitive Staphylococcus aureus (MSSA) was carried out as follows: • Bacteria were grown in 10 ml of nutrient broth (No. 2, (Oxoid)) overnight at 37° C. with continuous shaking at 120 rpm. […] The cultures were incubated at 37° C. with shaking for 1-2 hours to reach log CFU 6. Viability of the bacteria was estimated by colony forming unit (CFU) counts. From serial 10-fold dilutions of the experimental cultures, 100 μl samples were added to triplicate plates of nutrient agar plates (Oxoid) or blood agar plates (Oxoid). CFUs were counted after incubation of the plates at 37° C. for 24 hours. […] 290 μl of the cell suspension was added to each well of the 96 well plate, which was incubated at 37° C. for 24 hours. […] MIC determination: The optical density of the bacterial cells was read at 405 nm using a plate reader (Bio TEK). The MIC concentration was determined as the lowest concentration of drug which inhibits the bacterial growth. […] HT00800059 was dissolved in H2O to the stock solution 30.07 mg/ml. […] HT00800059 (30.7 mg/ml) was performed in a serial of 2 fold dilutions. This was followed by the addition of 280 μl of log phase culture at 10^6 CFU/ml to make the final concentrations of each drug as shown. In the above table, values in bold text are for HT00800059. Values in plain text are for mupirocin. The numbers shown in each well are μg/ml. Incubation of the compounds with the bacterial suspension was carried out for 24 hours. The kill effects of the drug combination were measured by optical density reading at 405 nm with a plate reader (Bio TEK). The fractional inhibitory concentration (FIC) index was carried out as following: (MIC of drug A, tested in combination)/(MIC of drug A, tested alone)+(MIC of drug B, tested in combination)/(MIC of drug B, tested alone). The interaction was defined as synergistic if the FIC index was <1, additive if the FIC index was =1 and antagonistic if the FIC index was >1.
# [2] = test system: Mupirocin Resistant S. aureus (28 Passages); experiment: Chequerboard analysis of HT00800059 and mupirocin against mupirocin resistant S. aureus (28 passages); type: cell-based, Staphylococcus aureus; details: for optical density reading at 405 nm: HT00800059 μg/ml: 1024,512,256,128,64,32,16,0, 24 hours
# Protocol: (§1) Staphylococcus aureus (Oxford); Gram positive; Reference strain.
# (§2) Log phase growth of mupirocin resistant Staphylococcus aureus (MSSA) was carried out as follows: • Bacteria were grown in 10 ml of nutrient broth (No. 2, (Oxoid)) overnight at 37° C. with continuous shaking at 120 rpm. The overnight cultures were diluted 1000× with iso-sensitest broth. The cultures were incubated at 37° C. with shaking for 1-2 hours to reach log CFU 6. Viability of the bacteria was estimated by colony forming unit (CFU) counts. From serial 10-fold dilutions of the experimental cultures, 100 μl samples were added to triplicate plates of nutrient agar plates (Oxoid) or blood agar plates (Oxoid). CFUs were counted after incubation of the plates at 37° C. for 24 hours.
# (§3) Bacterial cultures: 10 μl of overnight cultures was added to 10 ml of fresh iso-sensitest broth to make the inoculation to 10^6 CFU/ml. 290 μl of the cell suspension was added to each well of the 96 well plate, which was incubated at 37° C. for 24 hours. 300 μl of iso-sensitest broth without bacterial cells were added to wells of the plate as a no bacterial control.
# (§4) MIC determination: The optical density of the bacterial cells was read at 405 nm using a plate reader (Bio TEK). The MIC concentration was determined as the lowest concentration of drug which inhibits the bacterial growth.
# (§5) Mupirocin was dissolved in DMSO to the stock concentration of 10 mg/ml. HT00800059 was dissolved in H2O to the stock solution 30.07 mg/ml.
# (§6) Mupirocin (10 mg/ml) was firstly diluted to 3.84 mg/ml, then further diluted in a serial of 2 fold dilutions. HT00800059 (30.7 mg/ml) was performed in a serial of 2 fold dilutions.
# (§7) This was followed by the addition of 280 μl of log phase culture at 10^6 CFU/ml to make the final concentrations of each drug as shown in Table 1 and Table 2.
# (§8) In the above table, values in bold text are for HT00800059. Values in plain text are for mupirocin. The numbers shown in each well are μg/ml.
# (§9) Incubation of the compounds with the bacterial suspension was carried out for 24 hours. The kill effects of the drug combination were measured by optical density reading at 405 nm with a plate reader (Bio TEK).
# (§10) The fractional inhibitory concentration (FIC) index was carried out as following: (MIC of drug A, tested in combination)/(MIC of drug A, tested alone)+(MIC of drug B, tested in combination)/(MIC of drug B, tested alone). The interaction was defined as synergistic if the FIC index was <1, additive if the FIC index was =1 and antagonistic if the FIC index was >1.
# [3] = test system: Mupirocin Resistant S. aureus (24 Passages); experiment: Chequerboard analysis of HT00800059 and mupirocin against mupirocin resistant S. aureus (24 passages); type: cell-based, Staphylococcus aureus; details: for optical density reading at 405 nm: HT00800059 μg/ml: 1024,512,256,128,64,32,16,0, 24 hours
# Protocol: as §1, §2, §3, §4, §5, §6, §7, §8, §9, §10
# [4] = Staphylococcus aureus, read-out: alone MIC
structure (smiles),measurement,setting,value
C/C(=C\C(=O)OCCCCCCCCC(=O)O)C[C@@H]1OC[C@H](C[C@@H]2O[C@H]2[C@@H](C)[C@H](C)O)[C@@H](O)[C@H]1O [Mupirocin],MIC,"[1]; Staphylococcus aureus, summary list, read-out: alone MIC",0.25 µg/mL
same,MIC before combination,[1]; iso-sensitest broth,0.25 µg/mL
same,MIC post combination,[1]; iso-sensitest broth,0.0625 µg/mL
same,MIC before combination,[1]; nutrient broth,0.25 µg/mL
same,MIC post combination,[1]; nutrient broth,0.0625 µg/mL
same,mupirocin MIC in combination,[1]; with HT00800059 at 256 μg/ml,0.0625 µg/mL
same,optical density reading at 405 nm,"[2]; 28 passages, mupirocin 0.125 μg/ml",1.255
same,optical density reading at 405 nm,"[2]; 28 passages, mupirocin 0.25 μg/ml",1.246
same,optical density reading at 405 nm,"[2]; 28 passages, mupirocin 0.5 μg/ml",1.252
same,optical density reading at 405 nm,"[2]; 28 passages, mupirocin 1 μg/ml",1.244
same,optical density reading at 405 nm,"[2]; 28 passages, mupirocin 2 μg/ml",1.208
same,optical density reading at 405 nm,"[2]; 28 passages, mupirocin 4 μg/ml",1.136
same,optical density reading at 405 nm,"[2]; 28 passages, mupirocin 8 μg/ml",0.968
same,optical density reading at 405 nm,"[2]; 28 passages, mupirocin 16 μg/ml",0.726
same,optical density reading at 405 nm,"[2]; 28 passages, mupirocin 32 μg/ml",0.480
same,optical density reading at 405 nm,"[2]; 28 passages, mupirocin 64 μg/ml",0.363
same,optical density reading at 405 nm,"[2]; 28 passages, mupirocin 128 μg/ml",0.346
same,MIC,[2]; [4],64 µg/mL
same,MIC before combination,[2]; resistant strain 28 passages,64 µg/mL
same,MIC post combination,[2]; resistant strain 28 passages,4 µg/mL
same,mupirocin MIC in combination,"[2]; with HT00800059 at 256 μg/ml, 28 passages",4 µg/mL
same,optical density reading at 405 nm,"[3]; 24 passages, mupirocin 0.125 μg/ml",1.170
same,optical density reading at 405 nm,"[3]; 24 passages, mupirocin 0.25 μg/ml",1.083
same,optical density reading at 405 nm,"[3]; 24 passages, mupirocin 0.5 μg/ml",1.109
same,optical density reading at 405 nm,"[3]; 24 passages, mupirocin 1 μg/ml",1.056
same,optical density reading at 405 nm,"[3]; 24 passages, mupirocin 2 μg/ml",0.863
same,optical density reading at 405 nm,"[3]; 24 passages, mupirocin 4 μg/ml",0.629
same,optical density reading at 405 nm,"[3]; 24 passages, mupirocin 8 μg/ml",0.454
same,optical density reading at 405 nm,"[3]; 24 passages, mupirocin 16 μg/ml",0.386
same,optical density reading at 405 nm,"[3]; 24 passages, mupirocin 21 μg/ml",0.359
same,optical density reading at 405 nm,"[3]; 24 passages, mupirocin 64 μg/ml",0.356
same,optical density reading at 405 nm,"[3]; 24 passages, mupirocin 128 μg/ml",0.358
same,MIC,[3]; [4],16 µg/mL
same,MIC before combination,[3]; resistant strain 24 passages,16 µg/mL
same,MIC post combination,[3]; resistant strain 24 passages,1 µg/mL
same,mupirocin MIC in combination,"[3]; with HT00800059 at 256 μg/ml, 24 passages",1 µg/mL
